Where two headings read alike, the source gives them in different places.
Key:
human soluble ENPP1 [1] = target: T1, human soluble ENPP1 (Homo sapiens, UniProt P22413); assay: ENPP1 activity assay using p-Nitrophenyl-5′-TMP as a substrate; format: biochemical
T1 construct: 20 ng of human soluble ENPP1
T1 sequence (P22413 103-925 limits assumed): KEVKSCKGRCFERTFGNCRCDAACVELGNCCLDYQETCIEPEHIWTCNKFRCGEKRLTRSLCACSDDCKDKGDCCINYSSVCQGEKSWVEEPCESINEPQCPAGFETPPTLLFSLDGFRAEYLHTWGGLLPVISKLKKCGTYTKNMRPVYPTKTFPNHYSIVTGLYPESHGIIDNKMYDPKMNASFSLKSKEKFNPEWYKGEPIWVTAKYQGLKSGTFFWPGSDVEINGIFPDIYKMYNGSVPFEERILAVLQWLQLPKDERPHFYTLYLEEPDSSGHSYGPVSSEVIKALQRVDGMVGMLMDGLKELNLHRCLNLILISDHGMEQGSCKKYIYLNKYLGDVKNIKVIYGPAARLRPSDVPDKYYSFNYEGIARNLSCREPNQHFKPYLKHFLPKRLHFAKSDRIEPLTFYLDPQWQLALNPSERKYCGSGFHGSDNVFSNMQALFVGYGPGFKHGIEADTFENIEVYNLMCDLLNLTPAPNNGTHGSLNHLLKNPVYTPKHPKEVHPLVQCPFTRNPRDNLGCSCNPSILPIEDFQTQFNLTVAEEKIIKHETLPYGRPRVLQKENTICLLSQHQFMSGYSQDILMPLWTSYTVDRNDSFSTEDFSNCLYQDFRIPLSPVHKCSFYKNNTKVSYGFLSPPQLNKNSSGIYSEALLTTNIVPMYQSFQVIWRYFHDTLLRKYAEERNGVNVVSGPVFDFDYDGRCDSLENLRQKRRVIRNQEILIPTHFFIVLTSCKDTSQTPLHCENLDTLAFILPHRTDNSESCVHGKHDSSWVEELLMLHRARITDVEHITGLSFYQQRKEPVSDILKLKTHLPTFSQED
Summary of the method: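 Percent inhibition, set against uninhibited-enzyme and blank wells, was fitted to a four-parameter variable-slope model for IC50. Chromogenic read-out was p-nitrophenol released from TMP-pNP, added as a 2 mM […] solution for 1 h at RT. Before that, 20 ng soluble ENPP1 sat 30 min with compound.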

human soluble ENPP1 [2] = target: T1, human soluble ENPP1; assay: ENPP1 activity assay using p-Nitrophenyl-5′-AMP as a substrate; format: biochemical
Summary of the method: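 Absorbance at 405 nm tracks p-nitrophenol from AMP-pNP hydrolysis after 1 h at room temperature, substrate added as 3 mM (2× final) following 30 min enzyme–compound preincubation. Enzyme: 35 ng human soluble ENPP1. IC50 fitted (variable-slope four-parameter) from percent inhibition normalized to max and blank.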

ENPP-1, MDA-MB-231 cells = target: T2, ENPP-1, MDA-MB-231 cells (Homo sapiens, UniProt P22413); assay: cell-based; settings: for inhibition at 20 µM: MDA-MB-231, read-out: % Inhibition (at 20 μM)
T2 sequence (P22413 1-925): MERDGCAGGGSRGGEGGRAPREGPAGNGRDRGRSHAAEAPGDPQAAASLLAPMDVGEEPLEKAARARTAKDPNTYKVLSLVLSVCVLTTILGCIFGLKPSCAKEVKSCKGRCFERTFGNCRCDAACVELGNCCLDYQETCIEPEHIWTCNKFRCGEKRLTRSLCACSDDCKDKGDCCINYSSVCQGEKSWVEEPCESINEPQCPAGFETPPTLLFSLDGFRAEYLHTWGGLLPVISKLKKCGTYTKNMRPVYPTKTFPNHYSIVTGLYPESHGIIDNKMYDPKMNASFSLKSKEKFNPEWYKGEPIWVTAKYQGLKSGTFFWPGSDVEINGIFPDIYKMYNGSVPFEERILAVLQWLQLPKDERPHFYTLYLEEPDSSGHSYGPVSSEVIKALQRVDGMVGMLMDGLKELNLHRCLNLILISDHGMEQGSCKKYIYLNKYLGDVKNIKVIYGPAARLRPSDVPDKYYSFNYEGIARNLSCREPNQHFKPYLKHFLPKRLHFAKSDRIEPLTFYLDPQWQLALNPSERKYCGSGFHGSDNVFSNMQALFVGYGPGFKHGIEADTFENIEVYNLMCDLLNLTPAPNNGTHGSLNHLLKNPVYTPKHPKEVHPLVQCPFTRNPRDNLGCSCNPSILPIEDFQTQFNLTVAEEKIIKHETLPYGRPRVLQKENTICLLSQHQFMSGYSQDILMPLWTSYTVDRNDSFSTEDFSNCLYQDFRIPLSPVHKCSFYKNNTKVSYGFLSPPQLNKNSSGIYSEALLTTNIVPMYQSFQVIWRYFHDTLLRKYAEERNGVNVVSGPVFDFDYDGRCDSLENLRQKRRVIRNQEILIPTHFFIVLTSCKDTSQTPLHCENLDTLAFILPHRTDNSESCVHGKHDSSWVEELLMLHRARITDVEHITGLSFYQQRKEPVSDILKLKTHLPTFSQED

ENPP-1, HEK293 cells = target: T3, ENPP-1, HEK293 cells (Homo sapiens, UniProt P22413); assay: Cellular enzymatic assay of ENPP-1 inhibitors using TMP-pNP as substrate, HEK 293 cells; format: cell-based
T3 construct: ENPP-1 were mainly expressed on the surface of cell membrane; endogenous in cells; host or cells: HEK293
T3 sequence (P22413 1-925): T2 sequence (P22413 1-925)
Method: (§1) ENPP-1 were mainly expressed on the surface of cell membrane where it hydrolytes 2′3′-cGAMP to generate 5′-GMP and 5′-AMP. ENPP-1 also has the ability to hydrolyzes artificial phosphoric acid ester TMP-pNP to nucleotide-5′-monophosphate and p-nitrophcnol there, which is a chromogenic product.
(§2) 8 point of different concentrations of each inhibitor were prepared with the final assay concentrations starting at 20 μM. 3× series dilution by DMEM medium without FBS was applied. Prior to adding inhibitors, 75000 cells per well were incubated at 37° C., 5% CO2 in DMEM for 24 hours. After removing the supernatant medium, 50 μL inhibitor solution was added into each well with cultured cells and incubate at 37° C., 5% CO2 for 60 minutes.
(§3) The IC50 values for percent inhibition versus compound concentration are determined by fitting the inhibition curves using a four-parameter variable slope model in GraphPad Prism® 8.

ENPP-1, Saos-2 cells = target: T4, ENPP-1, Saos-2 cells (Homo sapiens, UniProt P22413); assay: Cellular enzymatic assay of ENPP-1 inhibitors using TMP-pNP as substrate, Saos-2 cells; format: cell-based; settings: for inhibition at 20 µM: SAOS-2, read-out: % Inhibition (@20 μM)
T4 construct: ENPP-1 were mainly expressed on the surface of cell membrane; endogenous in cells; host or cells: Saos-2
T4 sequence (P22413 1-925): T2 sequence (P22413 1-925)
Method: as §1, §2, §3

[3] = Liver microsome stability, mouse; format: in vitro ADME; settings: for Hepatic extraction ratio Re / microsomal CLint: Mouse liver microsome; for Half-life t1/2 (min) / half-life: Mouse liver microsome 0.5 mg/mL, NADPH and UDPGA, 37° C.; for half-life / microsomal CLint: liver microsomes; for half-life: read-out: Half-life t1/2; for microsomal CLint: read-out: Intrinsic clearance Cl′int, (μL/min/mg protein)
Method: (§4) Liver microsome assay was used to evaluate the metabolic stability of I-VI. The test article at the concentration of […] was incubated with 0.5 mg/mL liver microsome in the presence of NADPH and UDPGA as the co-factors for 0, 15, 30, 45 and 60 minutes. The incubation was carried out at 37° C. with 5% CO2 and saturating humidity. Disappearance of the test article was monitored by LC/MS/MS. the disappearance half-life (t1/2), intrinsic clearance and hepatic extraction ratio were determined.

[4] = Liver microsome stability, human; format: in vitro ADME; settings: for Hepatic extraction ratio Re: Human liver microsome; for Half-life t1/2 (min): Human liver microsome 0.5 mg/mL, NADPH and UDPGA, 37° C.
Method: as §4

Pharmacokinetics in mice = format: in vivo; settings: mouse, plasma, male CD-1 mice, 1 mg/kg, iv
Summary of the method: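 Male CD-1 mice (3 per group) dosed at 1 mg/kg IV bolus and 5 mg/kg oral gavage in 5% DMSO/40% PEG400/55% water. Jugular blood sampled from 0.033 (IV) or 0.083 (PO) up to 24 h. Plasma measured by LC/MS/MS, with PK parameters from non-compartmental analysis.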

[5] = HEK293, read-out: Inhibition (at 20 μM)
[6] = HEK293, HEK 293 cells, at 20 μM, read-out: Inhibition (at 20 μM)

SMILES | IC50 (human soluble ENPP1 [1]) [nM] | IC50 (human soluble ENPP1 [2]) [nM] | IC50 (ENPP-1, MDA-MB-231 cells) [nM] | inhibition at 20 µM (ENPP-1, MDA-MB-231 cells) [%] | inhibition at 20 µM (ENPP-1, HEK293 cells; [5]) [%] | inhibition at 20 µM (ENPP-1, Saos-2 cells) [%] | Hepatic extraction ratio Re [3] | Half-life t1/2 (min) [3] | Hepatic extraction ratio Re [4] | Half-life t1/2 (min) [4] | IC50 (ENPP-1, HEK293 cells) [nM] | inhibition at 20 µM (ENPP-1, HEK293 cells; [6]) [%] | IC50 (ENPP-1, Saos-2 cells) [nM] | half-life [3] [min] | microsomal CLint [3] [µL/min/mg] | AUC (Pharmacokinetics in mice) [ng·h/mL] | clearance (Pharmacokinetics in mice) [mL/min/kg] | half-life (Pharmacokinetics in mice) [min] | Vd (Pharmacokinetics in mice; read-out: Vdss) [L/kg]
COc1cc2ncc3[nH]c(=O)n(Cc4ccc(S(N)(=O)=O)cc4)c3c2cc1OC [Compound 1, 4-((7,8-dimethoxy-2-oxo-2,3-dihydro-1H-imidazo[4,5-c]quinolin-1-yl)methyl)benzenesulfonamide] | 1.7 | 5.9 | 2900 | 50 | 19 | 32 | 0 | ∞ | – | – | – | – | – | – | – | – | – | – | –
COc1cc2ncc3ncn(Cc4ccc(S(N)(=O)=O)nc4)c3c2cc1OC [Compound 10, 5-((7,8-dimethoxy-1H-imidazo[4,5-c]quinolin-1-yl)methyl)pyridine-2-sulfonamide] | 1.1 | 27 | – | – | – | – | – | – | 0 | ∞ | – | – | – | – | – | – | – | – | –
COc1cc2ncc3ncn([C@H](C)c4ccc(S(N)(=O)=O)cc4)c3c2cc1OC [Compound 11a, (R)-4-(1-(7,8-dimethoxy-1H-imidazo[4,5-c]quinolin-1-yl)ethyl)benzenesulfonamide] | 0.88 | 2.5 | 600 | 79 | – | 87 | 0.85 | – | – | – | 2100 | 84 | 1200 | 11 | 131 | – | – | – | –
COc1ccc2c(c1)ncc1[nH]c(=O)n(Cc3ccc(S(N)(=O)=O)cc3)c12 [Compound 35, 4-((7-methoxy-2-oxo-2,3-dihydro-1H-imidazo[4,5-c]quinolin-1-yl)methyl)benzenesulfonamide] | 0.37 | 35 | 1500 | 73 | 51 | 76 | 0 | ∞ | 0 | ∞ | 3400 | – | 5600 | – | – | – | – | – | –
COc1ccc2ncc3ncn(Cc4ccc(S(N)(=O)=O)cc4)c3c2c1 [Compound 36, 4-((8-methoxy-1H-imidazo[4,5-c]quinolin-1-yl)methyl)benzenesulfonamide] | 3.1 | 36 | 1500 | 66 | 57 | 48 | 0.55 | – | – | – | 5000 | – | 2000 | 49 | 28 | – | – | – | –
COc1ccc2c(ncc3ncn(Cc4ccc(S(N)(=O)=O)nc4)c32)n1 [Compound 41, 5-((7-methoxy-1H-imidazo[4,5-c][1,8]naphthyridin-1-yl)methyl)pyridine-2-sulfonamide] | 0.21 | 0.9 | 310 | 81 | – | – | – | – | – | – | 660 | 96 | – | – | – | 227 | 74 | 72 | 4

From US11673889B2, “Substituted imidazo[4,5-c][1,8]naphthyridines as phosphodiesterase inhibitors” (Nanjing Zhengxiang Pharmaceuticals Co., Ltd., priority 2019, dated 2023)
